Data from PubChem BioAssay (NCI).
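How tested: cells in 96-well plates exposed to compound for 48 hours at five concentrations. Definition used: TGI = concentration required for complete inhibition of growth.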

Key:
Assay in all cases: NCI tumour cell line growth inhibition, 48 h
[1] = tested on: 786-0 renal
[2] = tested on: A498 renal
[3] = tested on: A549 NSCLC
[4] = tested on: ACHN renal
[5] = tested on: BT-549 breast
[6] = tested on: CAKI-1 renal
[7] = tested on: CCRF-CEM leukemia
[8] = tested on: COLO 205 colon
[9] = tested on: DU-145 prostate
[10] = tested on: EKVX NSCLC
[11] = tested on: HCC-2998 colon
[12] = tested on: HCT-116 colon
[13] = tested on: HCT-15 colon
[14] = tested on: HL-60(TB) leukemia
[15] = tested on: HOP-62 NSCLC
[16] = tested on: HOP-92 NSCLC
[17] = tested on: HS 578T breast
[18] = tested on: HT29 colon
[19] = tested on: IGROV1 ovarian
[20] = tested on: K-562 leukemia
[21] = tested on: KM12 colon
[22] = tested on: LOX IMVI melanoma
[23] = tested on: M14 melanoma
[24] = tested on: MALME-3M melanoma
[25] = tested on: MCF7 breast
[26] = tested on: MDA-MB-231 breast
[27] = tested on: MDA-MB-435
[28] = tested on: MDA-N
[29] = tested on: MOLT-4 leukemia
[30] = tested on: NCI-H226 lung
[31] = tested on: NCI-H23 lung
[32] = tested on: NCI-H460 lung
[33] = tested on: NCI-H522 lung
[34] = tested on: NCI/ADR-RES ovarian
[35] = tested on: OVCAR-3 ovarian
[36] = tested on: OVCAR-4 ovarian
[37] = tested on: PC-3 prostate
[38] = tested on: RPMI-8226 leukemia
[39] = tested on: RXF 393 renal
[40] = tested on: SF-268 CNS
[41] = tested on: SF-295 CNS
[42] = tested on: SF-539 CNS
[43] = tested on: SK-MEL-2 melanoma
[44] = tested on: SK-MEL-28 melanoma
[45] = tested on: SK-MEL-5 melanoma
[46] = tested on: SK-OV-3 ovarian
[47] = tested on: SN12C renal
[48] = tested on: SNB-19 CNS
[49] = tested on: SNB-75 CNS
[50] = tested on: SR leukemia
[51] = tested on: SW-620 colon
[52] = tested on: TK-10 renal
[53] = tested on: U251 CNS
[54] = tested on: UACC-257 melanoma
[55] = tested on: UACC-62 melanoma
[56] = tested on: UO-31 renal
[57] = tested on: OVCAR-5 ovarian
[58] = tested on: OVCAR-8 ovarian

Compound: CCOC(=O)C1=C(Cl)c2cccnc2C1=O
- TGI [1]: > 100 µM
- TGI [2]: > 100 µM
- TGI [3]: > 100 µM
- TGI [4]: > 100 µM
- TGI [5]: > 100 µM
- TGI [6]: > 100 µM
- TGI [7]: > 100 µM
- TGI [8]: > 100 µM
- TGI [9]: 55.6 µM
- TGI [10]: > 100 µM
- TGI [11]: > 100 µM
- TGI [12]: > 100 µM
- TGI [13]: > 100 µM
- TGI [14]: > 100 µM
- TGI [15]: > 100 µM
- TGI [16]: > 100 µM
- TGI [17]: 77 µM
- TGI [18]: > 100 µM
- TGI [19]: > 100 µM
- TGI [20]: > 100 µM
- TGI [21]: > 100 µM
- TGI [22]: 72.7 µM
- TGI [23]: > 100 µM
- TGI [24]: > 100 µM
- TGI [25]: > 100 µM
- TGI [26]: > 100 µM
- TGI [27]: 64.7 µM
- TGI [28]: > 100 µM
- TGI [29]: > 100 µM
- TGI [30]: > 100 µM
- TGI [31]: 31.6 µM
- TGI [32]: > 100 µM
- TGI [33]: > 100 µM
- TGI [34]: > 100 µM
- TGI [35]: 43.7 µM
- TGI [36]: > 100 µM
- TGI [37]: > 100 µM
- TGI [38]: > 100 µM
- TGI [39]: > 100 µM
- TGI [40]: > 100 µM
- TGI [41]: > 100 µM
- TGI [42]: > 100 µM
- TGI [43]: > 100 µM
- TGI [44]: > 100 µM
- TGI [45]: > 100 µM
- TGI [46]: > 100 µM
- TGI [47]: > 100 µM
- TGI [48]: > 100 µM
- TGI [49]: 88.3 µM
- TGI [50]: 37.9 µM
- TGI [51]: > 100 µM
- TGI [52]: > 100 µM
- TGI [53]: > 100 µM
- TGI [54]: > 100 µM
- TGI [55]: > 100 µM
- TGI [56]: > 100 µM

Compound: CC(C)OC(=O)C1=C2c3ncccc3C(=O)N2[C@@H](Cl)[C@H](Cl)[C@H]1Cl
- TGI [1]: > 100 µM
- TGI [2]: > 100 µM
- TGI [3]: > 100 µM
- TGI [4]: > 100 µM
- TGI [5]: > 100 µM
- TGI [6]: > 100 µM
- TGI [8]: > 100 µM
- TGI [9]: > 100 µM
- TGI [10]: > 100 µM
- TGI [11]: > 100 µM
- TGI [12]: > 100 µM
- TGI [13]: > 100 µM
- TGI [14]: > 100 µM
- TGI [15]: > 100 µM
- TGI [16]: > 100 µM
- TGI [17]: > 100 µM
- TGI [18]: > 100 µM
- TGI [19]: > 100 µM
- TGI [20]: > 100 µM
- TGI [21]: > 100 µM
- TGI [22]: > 100 µM
- TGI [23]: > 100 µM
- TGI [24]: > 100 µM
- TGI [25]: > 100 µM
- TGI [26]: > 100 µM
- TGI [27]: > 100 µM
- TGI [28]: > 100 µM
- TGI [29]: > 100 µM
- TGI [30]: > 100 µM
- TGI [31]: > 100 µM
- TGI [32]: > 100 µM
- TGI [33]: > 100 µM
- TGI [34]: > 100 µM
- TGI [35]: > 100 µM
- TGI [36]: > 100 µM
- TGI [57]: > 100 µM
- TGI [58]: > 100 µM
- TGI [37]: > 100 µM
- TGI [38]: > 100 µM
- TGI [39]: > 100 µM
- TGI [40]: > 100 µM
- TGI [41]: > 100 µM
- TGI [42]: > 100 µM
- TGI [43]: > 100 µM
- TGI [44]: > 100 µM
- TGI [45]: > 100 µM
- TGI [47]: 85.9 µM
- TGI [48]: > 100 µM
- TGI [50]: 93.8 µM
- TGI [51]: > 100 µM
- TGI [52]: > 100 µM
- TGI [53]: > 100 µM
- TGI [54]: > 100 µM
- TGI [55]: > 100 µM
- TGI [56]: > 100 µM

Compound: O=[N+]([O-])c1ccc2c(c1)Sc1ccccc1N2
- TGI [1]: > 100 µM
- TGI [2]: > 100 µM
- TGI [3]: > 100 µM
- TGI [4]: > 100 µM
- TGI [5]: > 100 µM
- TGI [6]: > 100 µM
- TGI [7]: > 100 µM
- TGI [8]: > 100 µM
- TGI [9]: > 100 µM
- TGI [10]: > 100 µM
- TGI [11]: > 100 µM
- TGI [12]: > 100 µM
- TGI [13]: > 100 µM
- TGI [14]: > 100 µM
- TGI [15]: > 100 µM
- TGI [16]: > 100 µM
- TGI [17]: > 100 µM
- TGI [18]: > 100 µM
- TGI [19]: > 100 µM
- TGI [20]: > 100 µM
- TGI [21]: > 100 µM
- TGI [22]: > 100 µM
- TGI [24]: > 100 µM
- TGI [25]: > 100 µM
- TGI [26]: > 100 µM
- TGI [27]: > 100 µM
- TGI [28]: > 100 µM
- TGI [29]: > 100 µM
- TGI [30]: > 100 µM
- TGI [31]: > 100 µM
- TGI [32]: > 100 µM
- TGI [33]: > 100 µM
- TGI [34]: > 100 µM
- TGI [35]: > 100 µM
- TGI [36]: > 100 µM
- TGI [57]: > 100 µM
- TGI [58]: > 100 µM
- TGI [37]: > 100 µM
- TGI [38]: > 100 µM
- TGI [39]: > 100 µM
- TGI [40]: > 100 µM
- TGI [41]: > 100 µM
- TGI [42]: > 100 µM
- TGI [44]: > 100 µM
- TGI [45]: > 100 µM
- TGI [47]: > 100 µM
- TGI [48]: > 100 µM
- TGI [49]: 81.9 µM
- TGI [50]: > 100 µM
- TGI [51]: > 100 µM
- TGI [52]: > 100 µM
- TGI [53]: > 100 µM
- TGI [54]: > 100 µM
- TGI [56]: > 100 µM
